Experiments:
[1] = system: HIV-1 M184V; settings: cited from earlier work; for Resistance conferred by M184V as compared to WT: single amino acid residue mutation M184V
[2] = biological target: T1, WT HIV-1 RT (Human immunodeficiency virus type 1 group M subtype B, UniProt P03366, Q857C); assay: Pre-steady-state single-turnover kinetics of nucleotide incorporation by WT HIV-1 RT; assay type: biochemical; settings: for Kd: 18/26-mer dsDNA, 37 °C, read-out: Kd (apparent equilibrium dissociation constant); for Tighter binding (Kd) compared to natural dCTP: Kd dCTP / Kd analog
T1 construct: HIV-1 RT p66 and p51 subunits were expressed and purified as described previously; made in house
Protocol: (§1) Previous kinetic studies[16],[18],[20],[22]–[26] have aimed at understanding the efficiency of incorporation for (−)-FTC-TP or (−)-3TC-TP, how they compete against dCTP, and the effect of resistance mutations, such as M184V. As in our previous work[20],[25],[26], single-turnover kinetic assays were performed by rapidly mixing a pre-incubating solution of 120 nM HIV-1 RT (WT or M184V) and 30 nM 5ʹ-[^32P]-labeled 18/26-mer dsDNA substrate (Methods) with varying concentrations of dCTP, or an active metabolite of NRTIs for different times, before being quenched by 0.37 M EDTA. Representative kinetic plots displaying M184V-catalyzed incorporation of (−)-FTC-TP onto 18/26-mer dsDNA substrate are shown in Fig. 2. […] We determined the pre-steady-state kinetic parameters of maximal nucleotide incorporation rate constants (kp) and apparent equilibrium dissociation constants (Kd) for dCTP, (+)-FTC-TP, (−)-FTC-TP, (+)-3TC-TP and (−)-3TC-TP with WT or M184V HIV-1 RT (Table 1). […] The resulting selectivity factors ((kp/Kd)dCTP/(kp/Kd)NRTI) were determined to be only 1.9 and 7.0-fold higher for dCTP over (−)-FTC-TP and (−)-3TC-TP, respectively.
(§2) HIV-1 RT (120 nM) and 5ʹ-[^32P]-labeled 18/26-mer DNA (30 nM; DNA sequence shown above the 18mer primer without chemical modification) were pre-incubated at 37 °C for 5 min in reaction buffer containing 50 mM Tris-HCl (pH, 7.9), 10 mM MgCl2, 50 mM NaCl, 0.1 mM EDTA, 10% glycerol, 5 mM DTT, and 0.1 µg/mL BSA (all concentrations are final upon mixing). The reactions were initiated by rapidly mixing with varying concentrations of dCTP, FTC-TP, or 3TC-TP on a rapid chemical-quench flow apparatus (KinTek) and quenched with 0.37 M EDTA at various times. The DNA products were analyzed by sequencing gel electrophoresis (17% polyacrylamide, 8 M Urea), and quantitated using a Typhoon Trio (GE Healthcare) and ImageQuant software (Molecular Dynamics). The kinetic data were fit using non-linear regression software KaleidaGraph (Synergy) to a single-exponential equation Product=A1−exp−kobst, where A and kobs represent the reaction amplitude and observed nucleotide incorporation rate constant, respectively. Values for kobs were then plotted against the respective dNTP (or an NRTI triphosphate) concentration and each plot was fit to a hyperbolic equation kobs=kpdNTP∕Kd+dNTP, where kp is the maximal nucleotide incorporation rate constant and Kd is the apparent equilibrium dissociation constant for the binding of dNTP (or an NRTI triphosphate) to the RT and DNA complex. Each set of kinetic parameters (kp, Kd, kp/Kd) are derived from 8 individual experiments where the concentration of nucleotide is variable (i.e. 8 distinct concentrations of dCTP or NRTI). All reported error values are derived from data fitting using non-linear regression software KaleidaGraph (Synergy).

[3] = biological target: T2, M184V HIV-1 RT (Human immunodeficiency virus type 1 group M subtype B, UniProt P03366, M783V/Q857C); assay: Pre-steady-state single-turnover kinetics of nucleotide incorporation by M184V HIV-1 RT; assay type: biochemical
T2 construct: HIV-1 RT p66 and p51 subunits were expressed and purified as described previously; made in house
Protocol: as §1
(§3) Fig. 2 Determination of kinetic parameters for (−)-FTC-TP incorporation onto 18/26-mer dsDNA catalyzed by the M184V mutant of HIV-1 RT. a A pre-incubated solution of 120 nM M184V and 30 nM 5′-[^32P]-labeled 18/26-mer was mixed with increasing concentrations of (−)-FTC-TP (3.75 µM, ●; 7.5 µM, [drawing 1]; 15 µM, [drawing 2]; 30 µM, x; 60 µM, [drawing 3]; 120 µM, [drawing 4]; 240 µM, [drawing 5]; 480 µM, [drawing 6] ) for various times at 37 °C before being quenched with 0.37 M EDTA.
as §2

[4] = system: M184V HIV-1 RT; assay: as above; assay type: biochemical; settings: M184V vs WT RT
Protocol: as §1, §3, §2

[5] = system: M184V mutant RT; settings: up; cited from earlier work
[6] = system: HIV; settings: clinical trials, monotherapy; cited from earlier work
[7] = system: HIV virus; settings: initial cell-based screening; cited from earlier work
[8] = system: HIV; set-up: method as in PMID 19225726; settings: reportedly; cited from earlier work

Compound: Nc1ccn([C@H]2CS[C@@H](CO)O2)c(=O)n1 [3TC, 2ʹ,3ʹ-dideoxy-3ʹ-thiacytidine]
- Reduction in potency by M184V in cell-based assays [1]: > 500 fold
- Resistance conferred by M184V as compared to WT [1]: > 500 fold

Compound: Nc1ccn([C@H]2CS[C@@H](COP(=O)(O)OP(=O)(O)OP(=O)(O)O)O2)c(=O)n1 [(+)-3TC-TP]
- Kd ([2]; WT HIV-1 RT): 0.202 ± 0.004 µM
- Kd [3]: 5.4 ± 1.2 µM

Compound: Nc1nc(=O)n([C@H]2CS[C@@H](COP(=O)(O)OP(=O)(O)OP(=O)(O)O)O2)cc1F [(+)-FTC-TP]
- Kd ([2]; WT HIV-1 RT): 0.19 ± 0.02 µM
- Kd [3]: 1.8 ± 0.3 µM

Compound: Nc1ccn([C@@H]2CS[C@H](COP(=O)(O)OP(=O)(O)OP(=O)(O)O)O2)c(=O)n1 [(−)-3TC-TP]
- Kd ([2]; WT HIV-1 RT): 0.25 ± 0.01 µM
- Higher Kd value (lower binding affinity) over (−)-FTC-TP ([2]; WT RT): 2.5 fold
- Tighter binding (Kd) compared to natural dCTP ([2]; WT RT): 25 fold
- Kd [3]: 53 ± 4 µM
- Reduction of binding affinity (higher Kd) of M184V compared to WT [4]: 212 fold

Compound: Nc1nc(=O)n([C@@H]2CS[C@H](COP(=O)(O)OP(=O)(O)OP(=O)(O)O)O2)cc1F [(−)-FTC-TP]
- Binding affinity increase (tighter binding) over (−)-3TC-TP ([2]; WT HIV-1 RT): 2.5 fold
- Higher incorporation efficiency (kp/Kd) than (−)-3TC-TP ([2]; WT HIV-1 RT): 3.7 fold
- Kd ([2]; WT HIV-1 RT): 0.1 ± 0.01 µM
- Tighter binding (Kd) compared to natural dCTP ([2]; WT RT): 63 fold
- Kd [3]: 28 ± 2 µM
- Reduction of binding affinity (higher Kd) of M184V compared to WT [4]: 280 fold

Compound: Nc1nc(=O)n([C@H]2CS[C@@H](CO)O2)cc1F [FTC, 2ʹ,3ʹ-dideoxy-5-fluoro-3ʹ-thiacytidine]
- Reduction in potency by M184V in cell-based assays [1]: > 500 fold
- Resistance conferred by M184V as compared to WT [1]: > 500 fold
- Reduction in potency by M184V in enzyme-based assays [5]: > 300 fold
- Reduction in viral HIV RNA [6]: 1.7 log
- Cytotoxicity versus corresponding (+)-stereoisomer [7]: less cytotoxic
- Potency against the HIV virus versus corresponding (+)-stereoisomer [7]: more potent

Compound: Cc1cn([C@@H]2C[C@@H](O)[C@H](CO)O2)c(=O)[nH]c1=O [Telbivudine]
- Inhibition of HIV [8]: does not inhibit HIV

Compound: Nc1ccn([C@H]2C[C@H](O)[C@@H](COP(=O)(O)OP(=O)(O)OP(=O)(O)O)O2)c(=O)n1 [dCTP, deoxycytidine triphosphate]
- Kd ([2]; WT HIV-1 RT): 6.3 ± 0.2 µM
- Kd [3]: 8.9 ± 1 µM

Source: article PMC6910994, “Elucidating molecular interactions of L-nucleotides with HIV-1 reverse transcriptase and mechanism of M184V-caused drug resistance” (Communications Biology, 2019)
